Entries after “also recorded” stand apart in the source; their conditions may differ.

The experiment deals with T1, mouse GOAT (mGOAT) (Mus musculus, UniProt P0C7A3).
T1 construct: made in house; host or cells: Sf9 insect cells (membrane fraction)
T1 sequence (P0C7A3 1-435): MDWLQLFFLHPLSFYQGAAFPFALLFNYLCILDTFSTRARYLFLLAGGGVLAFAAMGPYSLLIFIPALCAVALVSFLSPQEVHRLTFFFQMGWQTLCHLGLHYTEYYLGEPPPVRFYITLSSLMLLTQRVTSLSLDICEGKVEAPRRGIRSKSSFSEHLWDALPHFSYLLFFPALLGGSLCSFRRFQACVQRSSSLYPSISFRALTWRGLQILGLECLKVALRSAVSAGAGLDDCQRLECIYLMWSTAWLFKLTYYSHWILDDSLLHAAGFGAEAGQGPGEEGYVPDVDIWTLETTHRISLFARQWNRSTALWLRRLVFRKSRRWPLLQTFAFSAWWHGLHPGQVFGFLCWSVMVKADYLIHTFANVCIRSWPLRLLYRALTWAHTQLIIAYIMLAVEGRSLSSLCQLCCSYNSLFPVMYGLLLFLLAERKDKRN
Briefly: Fluorescence-based GOAT activity assay, mouse GOAT. It is filed as biochemical. Particulars: concentrations up to 10 μM; Sf9 membranes, 1.5 μM GSSFLCAcDan, 500 μM octanoyl-CoA, 30 min pre-incubation, 1 h room temperature, pH 7.0, HPLC fluorescence, triplicate; F(3,8) = 0.139, p > 0.05. The source says:
The effects of CF801 on GOAT activity were examined using a previously validated fluorescence-based assay, and in comparison with octanoyl-(Dap3)-ghrelin (1–5)–NH2, a well characterized GOAT inhibitor ([56], [63]). In this assay, membrane fractions from Sf9 insect cells were transfected to express either human (hGOAT) or mouse GOAT (mGOAT). Membranes fractions were thawed on ice and passed through an 18-gage needle 10 times enriched using a previously described method ([63]). […] Assays were analyzed by reverse phase HPLC with fluorescence detection. […] The trials were run in triplicate, with the % activity calculated as the integrated fluorescence intensity of the octanoylated product in the CF801 or octanoyl-(Dap3)-ghrelin (1–5)–NH2 run normalized by the same quantity for the vehicle-only reaction. […]
Figure 3 Percent activity of human GOAT (A) and mouse GOAT (B) (obtained from membrane fractions from Sf9 cells expressing hGOAT and mGOAT, resepectively) when exposed to CF801 and octanoyl-(Dap3)-ghrelin (1–5)–NH2 using a fluorescence-based microsomal assay. GSSFLCAcDan was used as an acylation target with fluorescence measured by reverse phase HPLC with fluorescence detection. […] All values are expressed as mean ± SEM. ***p < 0.001 compared to vehicle control.

Take GSAFLSPEHQRK KRRQRRR-NH2 [CF801]: the “mGOAT activity with CF801” value is listed as “no inhibition was seen; also recorded: no effect”.

(Values after article PMC4585333, “Novel Regulator of Acylated Ghrelin, CF801, Reduces Weight Gain, Rebound Feeding after a Fast, and Adiposity in Mice” (Frontiers in Endocrinology, 2015).)
